What was measured:
[1] = 1H relaxivity of serial two-fold dilutions in tubes, from T1 weighted images; assay type: physicochemical; conditions: 7 Tesla, 37° C.
Method: FIGS. 2A and 2B: Graphical plots and T1 weighted images of individual tubes containing serial two-fold dilutions of Gadobutrol without ≥10% w/v PFC emulsion (FIG. 2A) or with ≥10% w/v PFC emulsion (FIG. 2B) display that ≥10% PFC emulsion diminishes the ^1H relaxivity of Gadobutrol from 3.95 L/mmol/s (FIG. 2A) to 2.05 L/mmol/s (FIG. 2B) at 7 Tesla scanner. T1 relaxation rate of water protons (R1=1/T1) was calculated from the slope of the line plotted by computing T1 relaxation time from T1 weighted images acquired at identical magnetic field strength of 7 Tesla at 37° C.
While gadolinium chelates are characterized by longitudinal and transverse relaxivity, denoted r1 and r2, respectively, (sensitivity to improve image contrast) gadolinium chelates are generally referred to as T1 agents owing to their larger effect on tissue T1 than on T2 for positive image contrast in T1-weighted images.

Stokes-Einstein radius = assay type: physicochemical

1H relaxivity of Gadobutrol ([1]; with ≥10% w/v PFC emulsion): 2.05 L/mmol/s | 1H relaxivity of Gadobutrol ([1]; without ≥10% w/v PFC emulsion): 3.95 L/mmol/s | Stokes-Einstein radius (median for the emulsion particles) (Stokes-Einstein radius): 0.4 nm
SMILES: O=C([O-])CN1CCN(CC(=O)[O-])CCN([C@H](CO)[C@H](O)CO)CCN(CC(=O)[O-])CC1.[Gd+3] (racemic) [Gadobutrol, gadobutrol]

From patent US20250135042A1, “Perfluorocarbon-Containing Contrast Agent for Use in MRI Imaging of Body Cavities” (University of Pittsburgh - Of the Commonwealth System of …, priority 2023, published 2025)
